Laboratory results reported in US20240301409A1, “Chemically Modified Small Activating RNA” (RACTIGEN THERAPEUTICS, priority 2021, published 2024).

Assays:
INF-α = assay: PBMC cytokine release assay, INF-α (ELISA); conditions: 10 nM, 24 hours; for immunostimulatory activity (INF-α) compared with Rag1-40, in words: PBMC
Procedure: Cells were treated with the indicated duplexes at a final concentration of 10 nM or lipopolysaccharide (LPS) as a positive control for 24 hours, respectively. The levels of INF-α and TNF-α in the cell supernatant were detected by ELISA kit. […] Data represent mean±SD of two independent experiments.
Human peripheral blood mononuclear cells (Allcells, Alameda, CA) were seeded in a 96-well microplate at a density of approximately 10×10^4 cells/well. Transfection of dsRNA was performed using RNAiMAX (Invitrogen, Carlsbad, CA) following manufacturer's instructions. Supernatants were collected 24 hours after transfection and immediately assayed for IFN-α and TNF-α production using ELISA kit (R&D Systems). Each treatment group was analyzed in triplicate.
To assess the immunostimulatory effect of chemically modified saRNAs, human peripheral blood mononuclear cells (PBMC) from healthy donors were incubated with the double-stranded saRNAs, and INF-α and TNF-α levels in the supernatant of treated cells after 24 hours were measured.

[1] = test system: Rag1-40 target sequence in the 3′ UTR of firefly luciferase, COS-1 cells; assay: Analysis of off-target effects (pOff-Target dual luciferase reporter in COS-1 cells); conditions: lysed 48 hours after transfection, luciferase activity
RNase A = molecular target: T1, RNase A (Bos taurus, UniProt P61823); assay: saRNA stability analysis in the presence of RNase A (agarose gel); conditions: incubation 0 to 96 hours
T1 sequence (P61823 27-150): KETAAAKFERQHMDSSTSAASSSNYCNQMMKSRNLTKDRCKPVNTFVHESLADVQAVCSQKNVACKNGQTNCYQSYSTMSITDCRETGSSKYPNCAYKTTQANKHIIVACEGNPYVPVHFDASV
Procedure: The duplexes obtained at each time point above were each added to 1 μL of 10× loading buffer, and then frozen in liquid nitrogen. After incubation, all samples were detected for the double-stranded RNA by 4% agarose gel electrophoresis, and the content of each duplex was analyzed by Image J software.
The duplexes obtained at each time point indicated above were each added to 1 μL of 10× loading buffer, and then frozen in liquid nitrogen. After incubation, all samples were detected for the double-stranded RNA by 4% agarose gel electrophoresis, and the content of each duplex was analyzed by Image J software.
saRNA (1.5 μL, 10 μM) was incubated at a final concentration of 0.02 mg/mL in PBS in the presence of RNase A (Amresco, OH, USA) at 37° C. for different durations. At the end of the incubation, the mixture was snap frozen in liquid nitrogen to stop nuclease activity. Samples were analyzed on a 4% agarose gel and examined for duplex degradation.
All chemically modified duplexes (Rag1-40-1 to Rag1-40-32) were incubated with 0.02 μg/L of RNase A for different durations (0 to 96 hours). At the end of the incubation, the size and amount of duplexes were detected by agarose gel electrophoresis.

T24 cells = assay: Cellular proliferation assay (CCK8) in T24 cells, alone and combined with Mitomycin C or valrubicin; assay type: cell-based, human; conditions: T24 cells, 10 nM, 72 hours, CCK8
From the text: (§1) After the transfection, the number of viable cells was detected with a CCK8 kit, and plotted as the percentage of the blank control treatment group. […] A transfection sample without oligonucleotide served as a blank control. Non-specific duplex (dsCon) transfected sample served as a negative control. Data are presented as mean±SD of at least two independent experiments. The values below the dashed line indicate stronger growth inhibitory activity compared to duplex Rag1-40 without chemical modification.
T24 cells were transfected with RAG1-40-31 at concentrations of 0.1, 0.5, 1, 5, 10, 25 and 50 nM for 24 hours, and then Mitomycin C was added at concentrations of 1, 10, 100, 1000 and 10000 nM. The combined treatment was carried out with concentrations in pairs. After treatment, the cellular proliferation was detected by CCK8 kit. FIGS. 16A-16B show the relative proliferation proportion of T24 cells after the combined treatment with chemically modified saRNA RAG1-40-31 and valrubicin. […] Control and DMSO are the blank transfection control and the solvent for dilution control, respectively.
T24 cells were transfected with RAG1-40-31 at concentrations of 0.1, 0.5, 1, 5, 10, 25 and 50 nM for 24 hours, and then valrubicin at concentrations of 1, 10, 100, 1000 and 10000 nM was added. The combined treatment was carried out with concentrations in pairs. After treatment, the cellular proliferation was detected by CCK8 kit.
(§2) Human bladder cancer cells Ku-7-LG (ATCC), J82 (ATCC) and T24 (ATCC) were cultured in McCoy medium (Gibco) comprising 10% calf serum (Sigma-Aldrich) and 1% penicillin/Streptomycin (Gibco). Cells were cultured at 37° C. under 5% CO2. Ku-7-LG, J82 and T24 cells were plated into 12-well plates at 10×10^4 cells per well, transfected with the small RNA at a concentration of 10 nM (unless otherwise specified) for three days, using RNAiMax (Invitrogen, Carlsbad, CA) according to the manufacturer's instructions. Two replicate wells were set for each treatment.
(§3) Cells were plated in a 96-well plate at 2˜4×10^3 cells/well, cultured overnight, and transfected with the oligonucleotide duplexes. Three days after transfection, CCK8 (Dojindo) was used to detect cellular proliferation following manufacturer's instructions. The experimental steps are briefly described as follows: 10 μL of CCK8 solution was added to each well, incubated at 37° C. for 1 hour, and then the absorbance at 450 nm was measured using a microplate reader.
(§4) It is known that p21 induction by saRNA is that a variety of tumor suppressor factors such as p21 protein suppress the proliferation of cancer cells. To evaluate the effect of chemically modified saRNAs on the function of cancer cells, cells (Ku-7-LG and T24) were transfected with 10 nM unmodified and modified saRNAs for 72 hours, and the cellular proliferation was determined by CCK8. […] Furthermore, there was a correlation between RNA activating activity (FIGS. 7A-7B) and suppression of cellular proliferation activity (FIGS. 8A-8B). Strong p21 activators are usually also strong cytostatics.

Ku-7-LG cells = assay: Cellular proliferation assay (CCK8) in Ku-7-LG cells; assay type: cell-based, human; conditions: 10 nM, 72 hours
Procedure: Ku-7-LG cells were transfected with the indicated saRNA at 10 nM for 3 days. […] The closer the luciferase value is to the control group, the lower the probability of off-target effects of saRNA is. Control and dsCon2 were blank transfection and double-stranded scramble RNA transfection, respectively. The value of the ordinate represents the mean±SD of two repeated treatments.
as §1, §2, §3, §4

Row | Substance | protein level of INF-α (INF-α; PBMC supernatant) [pg/mL] | immunostimulatory activity (INF-α) compared with Rag1-40, in words (INF-α) | off-target effect compared to unmodified Rag1-40, in words [1] | degradation of duplex at 96 hours (RNase A) | suppression of cellular proliferation, in words (T24 cells) | suppression of cellular proliferation, in words (Ku-7-LG cells)
1 | RAG1-IS-1: RNA duplex known to have strong immunostimulatory activity, positive control: S GUCAUCACACUGAAUACCAAU (SEQ ID NO 20), AS AUUGGUAUUCAGUGUGAUGACAC (SEQ ID NO 21) (listed as RNA, chemistry not given here) [reference compound] | 708 |  |  |  |  | 
2 | Rag1-40-5: saRNA duplex: sense mCmCAACUCAUUCUCCAAGmUmC (SEQ ID NO 5); antisense UACUfUGGAGAAfUGAGUfUGG*fC*A (SEQ ID NO 10) (sense CCAACUCAUUCUCCAAGUC; antisense UACUUGGAGAAUGAGUUGGCA; 2'-OMe, 2'-F, phosphorothioates; modified_base (1)..(19) (1,2,18,19)=2′-O-methyl(2′-OMe); modified_base (5)..(20) (5,12,17,20)=2′-fluoro; modified_base (19)..(21) (19,20,21)=phosphorothioate (PS) backbone modification) |  | reduced immunostimulatory activity | completely inhibited |  |  | 
3 | Rag1-40-9: saRNA duplex: sense fCfCAACUCAUUCUCCAAGfUfC (SEQ ID NO 14); antisense fUAfCfUfUGGAGAAfUGAGfUfUGGfCA (SEQ ID NO 6) (sense CCAACUCAUUCUCCAAGUC; antisense UACUUGGAGAAUGAGUUGGCA; 2'-F modifications; modified_base (1)..(19) (1,2,18,19)=2′-fluoro; modified_base (1)..(20) (1,3,4,5,12,16,17,20)=2′-fluoro) |  | reduced immunostimulatory activity | mitigated or similar off-target effects | little or no signs of degradation |  | 
4 | Rag1-40-13: saRNA duplex: sense fCfCAACUCAUUCUCCAAGfUfC (SEQ ID NO 14); antisense UACUfUGGAGAAfUGAGUfUGG*fC*A (SEQ ID NO 10) (sense CCAACUCAUUCUCCAAGUC; antisense UACUUGGAGAAUGAGUUGGCA; 2'-F modifications, phosphorothioates; modified_base (1)..(19) (1,2,18,19)=2′-fluoro; modified_base (5)..(20) (5,12,17,20)=2′-fluoro; modified_base (19)..(21) (19,20,21)=phosphorothioate (PS) backbone modification) |  | reduced immunostimulatory activity | mitigated or similar off-target effects |  |  | 
5 | Rag1-40-24: saRNA duplex: sense mCmCAACUCAUUCUCCAAG*U*C (SEQ ID NO 15); antisense fUactfUGGAGAAfUGAGfUfUGG*fC*A (SEQ ID NO 13) (sense CCAACUCAUUCUCCAAGUC; antisense UACTUGGAGAAUGAGUUGGCA; 2'-OMe, 2'-F, phosphorothioates, DNA residues; modified_base (1)..(2) (1,2)=2′-O-methyl(2′-OMe); modified_base (17)..(19) (17,18,19)=phosphorothioate (PS) backbone modification; modified_base (1)..(17) (1,2,9,13,14,17)=2′-fluoro; (1)..(21) (1,5,6,7,8,9,10,11,12,13,14,15,1,61,7,18,19,20, 21)=RNA; (2)..(4) (2,3,4)=DNA; modified_base (16)..(18) (16,17,18)=phosphorothioate (PS) backbone modification) |  |  | completely inhibited | little or no signs of degradation | weakens the activity of the saRNA duplex to suppress cellular proliferation | weakens the activity of the saRNA duplex to suppress cellular proliferation
